Laboratory results as given in paper PMC10324113, “Gut microbiome modulates tacrolimus pharmacokinetics through the transcriptional regulation of ABCB1” (Microbiome, 2023).

Assays:
[1] = molecular target: T1, ABCB1 (Homo sapiens, UniProt P08183); experiment: ABCB1 functionality assay: rhodamine 123 intracellular accumulation in HEK293 recombinant cells; type: cell-based; details: 5 μM Rh123, 90 min, PBS condition
T1 construct: expressed in transfected cells
Protocol: First, we tested the impact of FW on the intrinsic ABCB1 efflux functionality. The intracellular accumulation of rhodamine 123 (Rh123), a fluorescent-specific substrate of ABCB1 [39, 40], was performed in HEK293 recombinant cells. Rh123 accumulation was compared between control cells (Control plasmid) expressing low basal levels of ABCB1 and stably transfected cells overexpressing ABCB1 (ABCB1 plasmid), pre-exposed or not to FW for 15 min (Fig. 8A).
Briefly, HEK293 cells were transfected with a plasmid encoding for ABCB1 (ABCB1 plasmid) or an empty vector (control plasmid). HEK293 cells feature low endogenous levels of expression of ABCB1, ensuring that all ABCB1 expression originates from the transfection process. […] Finally, the cells were washed with buffer and resuspended before being analysed using a BD FACSVerse flow cytometer (for characterization) or BD FACSAria III (for cell sorting) and the BD FACSuite software (BD Bioscience, USA). […]
One day before the experiment, 9*10^4 cells (HEK293) were plated in poly-L-lysine-coated black 96-well plates in complete medium. […] Finally, the intracellular fluorescence of Rh123 was analysed by a fluorimeter SpectraMax i3x (Molecular Devices, USA); excitation wavelength was set at 485 nm and emission at 530 nm.

[2] = system: gut microbiota; experiment: Faecal microbiota composition by 16S rRNA gene sequencing in TAC-treated mice; type: in vivo
Protocol: (§1) Genomic DNA was extracted from faeces using a QIAamp DNA Stool Mini Kit (Qiagen, Germany), including a bead-beating step. Absolute quantification of the total bacteria was performed by quantitative polymerase chain reaction (qPCR) using the primers Bacteria Universal P338f ([…]) and P518r ([…]). 16S rRNA gene sequencing and ensuing bioinformatics and biostatistics analyses (including amplicon sequence variants (ASV) identification) were performed as previously described. Full details are provided in the Supporting Information.
To evaluate the potential impact of TAC oral administration on the gut microbiota composition, we compared the faecal bacterial composition of mice treated with TAC (TAC) or with the vehicle (CTL). Faeces were collected at baseline (day 0) and after 2 and 5 days of treatment.
To assess the impact of ATB on the bacterial load, genomic DNA was extracted from faeces using the QIAamp DNA Stool Mini Kit (Qiagen, Germany) according to manufacturer’s instructions, with the addition of a bead-beating step. To assess the impact of TAC on gut microbiota composition, genomic DNA was extracted from faeces following the protocol Q described by Costea et al. This protocol uses a QIAamp DNA Stool Mini Kit (Qiagen, Germany), including a bead-beating step. Treatment with RNAse A was performed (10 mg/ml, Thermo Fisher Scientific, USA). DNA concentration was determined using a NanoDrop 2000 (Thermo Fisher Scientific, USA).
Amplicon sequencing of the microbiome was done at the University of Minnesota Genomics Center. Briefly, the V5-V6 region of the 16S rRNA gene was PCR-enriched using the primer pair V5F_Nextera ([…]) and V6R_Nextera ([…]) in a 25 μl PCR reaction containing 5 μl of template DNA, […], 500 nM of final concentration of primers and 0.025 U/μl of HostStar Taq+ polymerase (Qiagen Germany). PCR-enrichment reactions were conducted as follow, an initial denaturation step at 95°C for 5 min followed by 25 cycles of denaturation (20 s at 98°C), annealing (15 s at 55°C), and elongation (1 min at 72°C), and a final elongation step (5 min at 72°C). Next, the PCR-enriched samples were diluted 1:100 in water for input into library tailing PCR. The PCR reaction was analogous to the one conducted for enrichment except with a KAPA HiFi Hot Start Polymerase concentration of 0.25 U/μl, while the cycling conditions used were as follows: initial denaturation at 95°C for 5 min followed by 10 cycles of denaturation (20 s at 98°C), annealing (15 s at 55°C), and elongation (1 min at 72°C), and a final elongation step (5 min at 72°C). The primers used for tailing are the following: F-indexing primer […][i5][…] and R-indexing primer […][i7][…] GCTCGG, where [i5] and [i7] refer to the index sequence codes used by Illumina. The resulting 10 μl indexing PCR reactions were normalized using a SequalPrep normalization plate according to the manufacturer’s instructions (Life Technologies, USA). 20 μl of each normalized sample was pooled into a trough, and a SpeedVac was used to concentrate the sample pool down to 100 μl. The pool was then cleaned using 1X AMPureXP beads and eluted in 25 μl of nuclease-free water. The final pool was quantitated by QUBIT (Life Technologies, USA) and checked on a Bioanalyzer High-Sensitivity DNA Chip (Agilent Technologies, USA) to ensure correct amplicon size. The final pool was then normalized to 2 nM, denatured with NaOH, diluted to 8 pM in Illumina’s HT1 buffer, spiked with 20% PhiX, and heat denatured at 96°C for 2 minutes immediately prior to loading. A MiSeq 600 cycle v3 kit was used to sequence the pool. Raw sequences can be found in the SRA database (project ID: PRJNA877868).
Subsequent bioinformatics analyses were performed in-house as previously described. Initial quality filtering of the reads was performed with the Illumina Software, yielding an average of 51 929 pass-filter reads per sample. […]

[3] = Tacrolimus whole blood pharmacokinetics after oral gavage in mice (HPLC-MS/MS, population PK model); details: for AUC: TAC AUC (population PK-derived)
Protocol: TAC was suspended in a mix of water and propylene glycol (90:10), 3 to 5 days before the first administration and kept at 4 °C. […] TAC was first dissolved in propylene glycol, then the water was added. The suspension was homogenized using an ultrasonic homogenizer 3 times for 15 s (QSonica Q700 sonicator, QSonica LLC., USA). TAC concentration was always checked before the first and after the last gavage to control for the dose. TAC or the vehicle was administered once a day (always at the same period) by oral gavage. A dose of 3 mg of TAC/kg of body weight was administered for 5 days, except in the dose determination study where different escalating doses (from 0.1 to 10 mg/kg of body weight) were tested (4 days of treatment).
It was administered via drinking water and renewed every other day.
Zosuquidar (ZSQ) was suspended in aqueous 0.5% methylcellulose (based on Matsuda et al.). A single dose of 30 mg/kg of body weight was administered 15 min before last TAC administration by oral gavage (based on Kono et al.).
Fresh faeces were collected and quickly frozen on dry ice before storage at − 80 °C until further analysis or use. Whole blood samples were collected from the tail of awake freely moving mice, at various time points (ranging from 1 to 24 h = T0, after last gavage). The blood sampling strategy used to generate the concentration–time curve of TAC blood levels in mice is detailed in the Supporting information. Before necropsy, mice were fasted for minimum 4 h and anesthetized with ketamine-xylazine or isoflurane. Hepatic and intestinal tissues were quickly collected and frozen in liquid nitrogen before storage at − 80 °C until further analysis.
Blood quantification of TAC was performed on a high-performance liquid chromatography-tandem mass spectrometry (HPLC–MS/MS) method, as already described elsewhere and further optimized for the small amounts of blood available in mouse PK studies. Briefly, the Agilent HPLC 1290 Infinity system is coupled to the 6460 Triple Quadrupole instrument. Fifty microlitres of whole blood was pre-treated and vortexed with 50 μl zinc sulfate 0.1 M, and 125 μl internal standard (ascomycin, 5 μg/L) in methanol. Samples were sonicated for 5 min, before 5 min of centrifugation at 13,500 rpm. Forty microlitres of the supernatant was injected into the system. The precolumn used was the 10 × 4 mm 3 μm Mercury Phenomenex, and the analytical column was the 4.6 × 50 mm 1.8 μm Agilent Zorbax Eclipse XDB C18, maintained at 60 °C. The mobile phase of pump 1 contained a mixture of H2O/methanol (40/60%), and pump 2 2 mM NH4^+ acetate, and aqueous 0.5% formic acid/ methanol (5/95%). […] The method is fully validated in terms of analytical performance (limit of quantification: 0.5 ng/ml; imprecision < 5%) and ion suppression effects. The laboratory participates to the TAC International Proficiency Testing Scheme (ASI, London, UK).
All data generated in this project (n = 351 PK data) were used to develop a population PK model of TAC in mice at steady-state with an average number of observations per subject of 3.5. Population PK modeling of TAC blood concentrations was performed with MonolixSuite-2020R1 software (Lixoft, France) using the stochastic approximation expectation–maximization (SAEM) algorithm. Between-subject variability (eta) was described using an exponential model and covariance between random effects was investigated. Three error models (i.e. proportional, additive and combined) to describe the residual error were tested. The influence of mouse treatment on PK parameters was also investigated through its association with the eta of PK parameters. Additional information on the building of the population PK model (e.g. the precise description of number of measurements per time points) is provided in the Supporting Information.

[4] = system: total bacteria; experiment: Absolute quantification of total faecal bacteria by qPCR; type: in vivo; details: CTL and TAC mice, faeces, up to 5 days
Protocol: as §1
To assess the impact of ATB on the bacterial load, genomic DNA was extracted from faeces using the QIAamp DNA Stool Mini Kit (Qiagen, Germany) according to manufacturer’s instructions, with the addition of a bead-beating step. […] DNA concentration was determined using a NanoDrop 2000 (Thermo Fisher Scientific, USA).
PCR was performed with a QuantStudio3 (Applied Biosystems, USA) using SYBR Green (GoTaq® qPCR mix, Promega, USA) for detection. […] Threshold was manually adjusted to reach the linear range of the log-fluorescent curves and CT values were determined using the QuantStudio software v1.4.3 (Applied Biosystems, USA). Absolute quantification was achieved through the inclusion of a standard curve (performed in duplicate) on each plate generated by diluting DNA from pure culture of L. acidophilus NCFM (five-fold serial dilution). […]

[5] = Stability of the TAC suspension for gavage; type: physicochemical; details: suspension in water and propylene glycol (90:10), kept at 4 °C
[6] = cited from earlier work
[7] = system: CYP3A; parameters: method as in PMID 11172691; details: in vitro; cited from earlier work
[8] = system: ABCB1; parameters: method as in PMID 11172691; details: cited from earlier work
[9] = 5 days TAC oral vs vehicle-treated mice
[10] = mice, oral gavage, steady-state, mono-compartmental population PK model, mean

T1 sequence (P08183 whole entry): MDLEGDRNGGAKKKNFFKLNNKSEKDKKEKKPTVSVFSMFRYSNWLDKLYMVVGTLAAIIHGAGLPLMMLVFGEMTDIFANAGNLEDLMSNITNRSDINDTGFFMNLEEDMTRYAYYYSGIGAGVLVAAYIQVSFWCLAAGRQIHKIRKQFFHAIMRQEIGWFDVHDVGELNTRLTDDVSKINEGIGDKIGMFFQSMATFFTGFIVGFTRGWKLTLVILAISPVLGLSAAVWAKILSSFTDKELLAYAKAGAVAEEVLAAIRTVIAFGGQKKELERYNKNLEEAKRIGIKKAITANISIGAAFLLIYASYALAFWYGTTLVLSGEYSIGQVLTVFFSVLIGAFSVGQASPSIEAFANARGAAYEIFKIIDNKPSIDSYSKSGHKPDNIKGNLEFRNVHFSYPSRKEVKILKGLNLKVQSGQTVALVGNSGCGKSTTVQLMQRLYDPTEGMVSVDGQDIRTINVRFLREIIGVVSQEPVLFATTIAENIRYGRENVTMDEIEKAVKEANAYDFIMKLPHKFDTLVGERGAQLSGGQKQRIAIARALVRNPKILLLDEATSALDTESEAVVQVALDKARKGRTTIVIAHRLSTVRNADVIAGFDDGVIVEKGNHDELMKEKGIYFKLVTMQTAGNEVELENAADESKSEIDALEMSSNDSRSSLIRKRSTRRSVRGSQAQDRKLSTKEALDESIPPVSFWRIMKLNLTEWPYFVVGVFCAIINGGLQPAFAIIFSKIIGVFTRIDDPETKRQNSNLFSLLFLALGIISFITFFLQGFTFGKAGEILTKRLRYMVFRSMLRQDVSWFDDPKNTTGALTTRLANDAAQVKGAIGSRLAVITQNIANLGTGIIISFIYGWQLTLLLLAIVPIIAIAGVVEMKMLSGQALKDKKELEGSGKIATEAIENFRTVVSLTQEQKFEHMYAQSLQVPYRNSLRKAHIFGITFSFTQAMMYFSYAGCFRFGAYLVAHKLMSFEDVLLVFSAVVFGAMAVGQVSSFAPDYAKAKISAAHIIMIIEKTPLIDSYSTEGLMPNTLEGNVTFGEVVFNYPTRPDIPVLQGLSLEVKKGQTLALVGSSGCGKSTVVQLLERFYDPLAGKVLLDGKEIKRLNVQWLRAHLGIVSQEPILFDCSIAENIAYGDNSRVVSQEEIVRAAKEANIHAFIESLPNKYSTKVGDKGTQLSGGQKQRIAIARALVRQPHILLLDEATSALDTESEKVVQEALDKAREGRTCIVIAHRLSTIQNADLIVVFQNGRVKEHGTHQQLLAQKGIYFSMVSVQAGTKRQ

COC(=O)c1ccccc1-c1c2ccc(=N)cc-2oc2cc(N)ccc12 [Rh123, rhodamine 123]
intracellular accumulation in ABCB1 overexpressing cells vs control cells [1]: accumulated significantly less

C=CC[C@@H]1/C=C(\C)C[C@H](C)C[C@H](OC)[C@H]2O[C@@](O)(C(=O)C(=O)N3CCCC[C@H]3C(=O)O[C@H](/C(C)=C/[C@@H]3CC[C@@H](O)[C@H](OC)C3)[C@H](C)[C@@H](O)CC1=O)[C@H](C)C[C@@H]2OC [TAC, tacrolimus]
evenness of the gut microbiota (Simpson's and Heip's evenness indexes) [2, 9]: significant reduction
indexes combining richness and evenness (Shannon and Simpson indexes) [2, 9]: significantly reduced
richness (Chao1 and Observed ASV indexes) [2, 9]: did not affect
relative abundance of Clostridiales incertae sedis XIII ([2]; family level, 5 days TAC): decrease
relative abundance of Lachnospiraceae ([2]; family level, 5 days TAC): decrease
relative abundance of Rikenellaceae ([2]; family level, 5 days TAC): increase
relative abundance of Ruminococcaceae ([2]; family level, 5 days TAC): decrease
relative abundance of Verrucomicrobiaceae ([2]; family level, 5 days TAC): increase
relative abundance of Akkermansia ([2]; genus level, 5 days TAC): increased
relative abundance of Alistipes ([2]; genus level, 5 days TAC): increased
relative abundance of Oscillibacter ([2]; genus level, 5 days TAC): decreased
relative abundance of Ruminococcus 2 ([2]; genus level, 5 days TAC): decreased
variability in the microbiota dataset accounted for by TAC administration ([2]; genus level, after 5 days of treatment, PERMANOVA p < 0.05): 15%
increase in TAC whole blood exposure ([3]; ATB-treated vs control mice, both under ZSQ supplementation): 75%
reduction in TAC whole blood exposure ([3]; mice with lower intestinal microbial load due to antibiotics vs controls): 33%
time of absorption peak after the last administration ([3]; mice, 3 mg/kg oral, steady-state concentration-time curve): 2 h
Ka (absorption rate constant) [3, 10]: 1.20 h⁻¹
V (volume of distribution) [3, 10]: 1.88 L
Cl/F (oral clearance) ([3]; mice, oral gavage, steady-state, mono-compartmental population PK model, mean, n = 351 blood samples in 99 mice): 0.32 L/h
concentration at 2 h ([3]; mouse, whole blood, po, 3 mg/kg): 39.1 ng/mL
AUC ([3]; mouse, whole blood, po, 3 mg/kg, ATB-treated mice (TAC + ATB), 3 mg/kg oral 5 days, steady-state): 131 ng·h/mL
AUC ([3]; mouse, whole blood, po, 3 mg/kg, mice treated with TAC solely, 3 mg/kg oral 5 days, steady-state): 195 ng·h/mL
AUC ([3]; mouse, whole blood, po, TAC + ZSQ + ATB mice, ZSQ 30 mg/kg oral 15 min before last TAC administration): 618 ng·h/mL
AUC ([3]; mouse, whole blood, po, TAC + ZSQ mice, ZSQ 30 mg/kg oral 15 min before last TAC administration): 354 ng·h/mL
change in total bacterial load over time [4]: did not observe any significant change
stability of the solution validated for [5]: 15 days
parent drug recovered unchanged in the faeces or urine [6]: less than 0.5%
time of absorption peak after drug intake ([6]; human population): around 2 h
time to steady-state (5 times the half-life) ([6]; human): ~ 60 h

O[C@@H](COc1cccc2ncccc12)CN1CCN([C@@H]2c3ccccc3[C@@H]3[C@H](c4ccccc42)C3(F)F)CC1 [ZSQ, Zosuquidar]
change in TAC AUC in comparison to TAC solely group ([3]; mouse, in vivo): significant increase
Ki [7]: ~3800 nM
affinity for CYP3A lower than for ABCB1 ([8]; CYP3A vs ABCB1): more than 60 times
Ki [8]: ~59 nM

C=CCC1C=C(C)CC(C)CC(OC)C2OC(O)(C(C)CC2OC)C(O)C(=O)N2CCCCC2C(=O)OC(C(C)=CC2CCC(O)C(OC)C2)C(C)C(O)CC1=O (centres unmarked) [bacteria-derived TAC metabolite]
bacteria-derived TAC metabolite as share of the parent drug ([6]; human, in vivo): ≤ 5 % of the parent drug
